Like-named read-outs stand apart in the source and are kept apart here.

For assay [1], the system named is Beet Armyworm (BAW) (Spodoptera exigua). Description: Bioassay on beet armyworm (BAW), 128-well diet tray assay. The assay is classed as in vivo. As to conditions: Spodoptera exigua, read-out: % Mortality BAW 50 μg/cm^2. As for the experimental part:
(§1) Certain molecules disclosed in this document were tested against BAW and CEW using procedures described in the following examples. In the reporting of the results, the “BAW & CEW Rating Table” was used (See Table Section).
Bioassays on BAW (Spodoptera exigua)
Bioassays on BAW were conducted using a 128-well diet tray assay. […] Trays were covered with a clear self-adhesive cover and held at 25° C., 14:10 light-dark for five to seven days. Percent mortality was recorded for the larvae in each well; activity in the eight wells was then averaged. The results are indicated in the table entitled “Table 5: Biological Results” (See Table Section).

Assay [2] concerns Corn Earworm (CEW) (Helicoverpa zea). Kind of assay: Bioassay on corn earworm (CEW), 128-well diet tray assay. The assay is classed as in vivo. To be noted: Helicoverpa zea, read-out: % Mortality CEW 50 μg/cm^2. On the procedure: as §1
Bioassays on CEW (Helicoverpa zea)
Bioassays on CEW were conducted using a 128-well diet tray assay. […] Trays were covered with a clear self-adhesive cover and held at 25° C., 14:10 light-dark for five to seven days. Percent mortality was recorded for the larvae in each well; activity in the eight wells was then averaged. The results are indicated in the table entitled “Table 5: Biological Results” (See Table Section).

`Cc1cccc(C)c1N1C(=O)CS/C1=N\N=C\c1ccc(-c2ccn(-c3ccc(OC(F)(F)F)cc3)n2)cc1` [Compound 103C]: the mortality at 50 µg/cm2 in assay [1] (beet armyworm, 50 μg/cm^2) lay in the range of 50 to 100%; in assay [2] (corn earworm, 50 μg/cm^2), 50 to 100%.
On to `CC1CCS/C(=N\N=C\c2ccc(-c3ncn(-c4ccc(OC(F)(F)F)cc4)n3)cc2)N1c1ccccc1C(C)(C)C` (centres unmarked) [Compound 222C], for which the mortality at 50 µg/cm2 lay within 50 to 100% in assay [1] (beet armyworm, 50 μg/cm^2) and 50 to 100% in assay [2] (corn earworm, 50 μg/cm^2).
Take `CCOc1ccccc1N1C(=O)CS/C1=N\N=C\c1ccc(-c2ncn(-c3ccc(OC(F)(F)F)cc3)n2)cc1` [Compound 116C]: the mortality at 50 µg/cm2 was in the range of 50 to 100% in assay [1] (beet armyworm, 50 μg/cm^2) and 50 to 100% in assay [2] (corn earworm, 50 μg/cm^2).
For the compound `CC(C)(C)c1ccccc1N1CCCS/C1=N\N=C\c1ccc(-c2ncn(-c3ccc(OC(F)(F)F)cc3)n2)cc1` [Compound 210C], the mortality at 50 µg/cm2 in assay [1] (beet armyworm, 50 μg/cm^2) was in the range of 50 to 100%; in assay [2] (corn earworm, 50 μg/cm^2), 50 to 100%.
Regarding `Cc1cccc(C(C)C)c1N1C(=O)CS/C1=N\N=C\c1ccc(-c2ncn(-c3ccc(OC(F)(F)F)cc3)n2)cc1` [Compound 238C], the mortality at 50 µg/cm2 in assay [1] (beet armyworm, 50 μg/cm^2) fell in the range of 50 to 100%; in assay [2] (corn earworm, 50 μg/cm^2) it was 50 to 100%.
`CCC(C)c1ccccc1N1/C(=N/N=C/c2ccc(-c3ncn(-c4ccc(OC(F)(F)F)cc4)n3)cc2)SCCC1C` (centres unmarked) [Compound 220C]: the mortality at 50 µg/cm2 in assay [1] (beet armyworm, 50 μg/cm^2) was 50 to 100%; in assay [2] (corn earworm, 50 μg/cm^2), 50 to 100%.
On to `FC(F)(F)Oc1ccc(-n2cnc(-c3ccc(/C=N/N=C4\SCCN4c4ccccc4OC(F)(F)F)cc3)n2)cc1` [Compound 153C], for which the mortality at 50 µg/cm2 was 0% in assay [1] (beet armyworm, 50 μg/cm^2) and 50 to 100% in assay [2] (corn earworm, 50 μg/cm^2).
As for `CC1CS/C(=N\N=C\c2ccc(-c3ncn(-c4ccc(OC(F)(F)F)cc4)n3)cc2)N1c1c(Cl)cccc1C(F)(F)F` (centres unmarked) [Compound 160C], the mortality at 50 µg/cm2 in assay [1] (beet armyworm, 50 μg/cm^2) is 50 to 100%; in assay [2] (corn earworm, 50 μg/cm^2), 50 to 100%.
With `CCc1cccnc1N1C(=O)CS/C1=N\N=C\c1ccc(-c2ncn(-c3ccc(OC(F)(F)F)cc3)n2)cc1` [Compound 123C], the mortality at 50 µg/cm2 was in the range of 50 to 100% in assay [1] (beet armyworm, 50 μg/cm^2) and 50 to 100% in assay [2] (corn earworm, 50 μg/cm^2).
Regarding `COC(=O)C1CC(c2ccc(/C=N/N=C3\SCC(=O)N3c3c(C)cccc3C)cc2)=NN1c1ccc(OC(F)(F)F)cc1` (centres unmarked) [Compound 110C], the mortality at 50 µg/cm2 in assay [1] (beet armyworm, 50 μg/cm^2) lay in the range of 50 to 100%; in assay [2] (corn earworm, 50 μg/cm^2) it was 50 to 100%.
Take `CC1CS/C(=N\N=C\c2ccc(-c3ncn(-c4ccc(OC(F)(F)F)cc4)n3)cc2)N1c1ccccc1OC(F)F` (centres unmarked) [Compound 164C]: the mortality at 50 µg/cm2 is 50 to 100% in assay [1] (beet armyworm, 50 μg/cm^2) and 50 to 100% in assay [2] (corn earworm, 50 μg/cm^2).
Take `CC(C)(C)c1ccccc1N1C(=O)CCS/C1=N\N=C\c1ccc(-c2ncn(-c3ccc(OC(F)(F)F)cc3)n2)cc1` [Compound 232C]: the mortality at 50 µg/cm2 is 50 to 100% in assay [1] (beet armyworm, 50 μg/cm^2) and 50 to 100% in assay [2] (corn earworm, 50 μg/cm^2).
As for `O=C1CS/C(=N\N=C\c2ccc(-c3cn(-c4ccc(OC(F)(F)F)cc4)cn3)cc2)N1c1c(Cl)cccc1Cl` [Compound 102C], the mortality at 50 µg/cm2 in assay [1] (beet armyworm, 50 μg/cm^2) fell in the range of 50 to 100%; in assay [2] (corn earworm, 50 μg/cm^2) it was 50 to 100%.
As for `COc1ccc(N2/C(=N/N=C/c3ccc(-c4ncn(-c5ccc(OC(F)(F)F)cc5)n4)cc3)SCCC2C)c(C)c1` (centres unmarked) [Compound 219C], the mortality at 50 µg/cm2 in assay [1] (beet armyworm, 50 μg/cm^2) lay in the range of 50 to 100%; in assay [2] (corn earworm, 50 μg/cm^2), 50 to 100%.
Take `Cc1cccc(N2/C(=N/N=C/c3ccc(-c4ncn(-c5ccc(OC(F)(F)F)cc5)n4)cc3)SCC2(C)O)c1C(C)C` (centres unmarked) [Compound 252C]: the mortality at 50 µg/cm2 fell in the range of 50 to 100% in assay [1] (beet armyworm, 50 μg/cm^2) and 50 to 100% in assay [2] (corn earworm, 50 μg/cm^2).
For `COc1ccc(N2C(=O)CCS/C2=N\N=C\c2ccc(-c3ncn(-c4ccc(OC(F)(F)F)cc4)n3)cc2)c(C)c1` [Compound 231C], the mortality at 50 µg/cm2 in assay [1] (beet armyworm, 50 μg/cm^2) lay within 50 to 100%; in assay [2] (corn earworm, 50 μg/cm^2), 50 to 100%.
For `O=C1CCS/C(=N\N=C\c2ccc(-c3ncn(-c4ccc(OC(F)(F)F)cc4)n3)cc2)N1c1c(Cl)cccc1C(F)(F)F` [Compound 228C], the mortality at 50 µg/cm2 was in the range of 50 to 100% in assay [1] (beet armyworm, 50 μg/cm^2) and 50 to 100% in assay [2] (corn earworm, 50 μg/cm^2).
Regarding `Cc1cccc(C)c1N1C(=O)CCS/C1=N\N=C\c1ccc(-c2ncn(-c3ccc(OC(F)(F)F)cc3)n2)cc1` [Compound 223C], the mortality at 50 µg/cm2 in assay [1] (beet armyworm, 50 μg/cm^2) fell in the range of 50 to 100%; in assay [2] (corn earworm, 50 μg/cm^2), 50 to 100%.
Turning to `CC1S/C(=N\N=C\c2ccc(-c3ncn(-c4ccc(OC(F)(F)F)cc4)n3)cc2)N(c2c(F)cccc2Cl)C1=O` (centres unmarked) [Compound 130C], the mortality at 50 µg/cm2 was in the range of 50 to 100% in assay [1] (beet armyworm, 50 μg/cm^2) and 50 to 100% in assay [2] (corn earworm, 50 μg/cm^2).
Regarding `CC1S/C(=N\N=C\c2ccc(-c3ncn(-c4ccc(OC(F)(F)F)cc4)n3)cc2)N(c2ccccc2C2CC2)C1=O` (centres unmarked) [Compound 127C], the mortality at 50 µg/cm2 lay in the range of 50 to 100% in assay [1] (beet armyworm, 50 μg/cm^2) and 50 to 100% in assay [2] (corn earworm, 50 μg/cm^2).
Consider `CC(C)(C)c1ccccc1N1C(=O)CS/C1=N\N=C\c1ccc(-c2ncn(-c3ccc(OC(F)(F)F)cc3)n2)cc1` [Compound 125C], for which the mortality at 50 µg/cm2 in assay [1] (beet armyworm, 50 μg/cm^2) lay within 50 to 100%; in assay [2] (corn earworm, 50 μg/cm^2), 50 to 100%.
Take `CC1CCS/C(=N\N=C\c2ccc(-c3ncn(-c4ccc(OC(F)(F)F)cc4)n3)cc2)N1c1c(Cl)cccc1C(F)(F)F` (centres unmarked) [Compound 217C]: the mortality at 50 µg/cm2 in assay [1] (beet armyworm, 50 μg/cm^2) fell in the range of 50 to 100%; in assay [2] (corn earworm, 50 μg/cm^2), 50 to 100%.
In the case of `O=C1CS/C(=N\N=C\c2ccc(-c3ncn(-c4ccc(OC(F)(F)F)cc4)n3)cc2)N1c1ccccc1Cl` [Compound 106C], the mortality at 50 µg/cm2 in assay [1] (beet armyworm, 50 μg/cm^2) was in the range of 50 to 100%; in assay [2] (corn earworm, 50 μg/cm^2), 50 to 100%.
With `Cc1ccccc1N1C(=O)CS/C1=N\N=C\c1ccc(-c2ncn(-c3ccc(OC(F)(F)F)cc3)n2)cc1` [Compound 113C], the mortality at 50 µg/cm2 in assay [1] (beet armyworm, 50 μg/cm^2) lay within 50 to 100%; in assay [2] (corn earworm, 50 μg/cm^2) it was 50 to 100%.
Consider `FC(F)Oc1ccccc1N1CCS/C1=N\N=C\c1ccc(-c2ncn(-c3ccc(OC(F)(F)F)cc3)n2)cc1` [Compound 152C], for which the mortality at 50 µg/cm2 in assay [1] (beet armyworm, 50 μg/cm^2) was in the range of 50 to 100%; in assay [2] (corn earworm, 50 μg/cm^2), 50 to 100%.
Turning to `CCc1cc(OC)ccc1N1/C(=N/N=C/c2ccc(-c3ncn(-c4ccc(OC(F)(F)C(F)(F)F)cc4)n3)cc2)SCC1(C)O` (centres unmarked) [Compound 264C], the mortality at 50 µg/cm2 in assay [1] (beet armyworm, 50 μg/cm^2) fell in the range of 50 to 100%.
In the case of `COc1ccc(N2C(=O)CS/C2=N\N=C\c2ccc(-c3ncn(-c4ccc(OC(F)(F)F)cc4)n3)cc2)c(C)c1` [Compound 114C], the mortality at 50 µg/cm2 was 50 to 100% in assay [1] (beet armyworm, 50 μg/cm^2) and 50 to 100% in assay [2] (corn earworm, 50 μg/cm^2).
As to `CN(C)c1cccc(N2C(=O)CS/C2=N\N=C\c2ccc(-c3ncn(-c4ccc(OC(F)(F)F)cc4)n3)cc2)c1` [Compound 97C], the mortality at 50 µg/cm2 in assay [1] (beet armyworm, 50 μg/cm^2) lay in the range of 50 to 100%; in assay [2] (corn earworm, 50 μg/cm^2), 50 to 100%.
Consider `COc1ccc(N2/C(=N/N=C/c3ccc(-c4ncn(-c5ccc(OC(F)(F)F)cc5)n4)cc3)SCC2C)c(C)c1` (centres unmarked) [Compound 162C], for which the mortality at 50 µg/cm2 in assay [1] (beet armyworm, 50 μg/cm^2) is 50 to 100%; in assay [2] (corn earworm, 50 μg/cm^2) it was 50 to 100%.
For the compound `Cc1cccc(C)c1/N=C(/N/N=C/c1ccc(-c2ncn(-c3ccc(OC(F)(F)F)cc3)n2)cc1)SCC(=O)NCCCN(C)C(=O)OC(C)(C)C` [Compound 61C], the mortality at 50 µg/cm2 in assay [1] and in assay [2] was 50 to 100% throughout.
Regarding `CC1CS/C(=N\N=C\c2ccc(-c3ncn(-c4ccc(OC(F)(F)F)cc4)n3)cc2)N(c2ccccc2OC(F)(F)F)C1` (centres unmarked) [Compound 214C], the mortality at 50 µg/cm2 is 50 to 100% in assay [1] (beet armyworm, 50 μg/cm^2) and 50 to 100% in assay [2] (corn earworm, 50 μg/cm^2).
`CCOc1cccc(OCC)c1N1C(=O)CS/C1=N\N=C\c1ccc(-c2ncn(-c3ccc(OC(F)(F)F)cc3)n2)cc1` [Compound 98C]: in assay [1] (beet armyworm, 50 μg/cm^2), the mortality at 50 µg/cm2 was 50 to 100%.
